Assay results as given in patent US20100298141A1, “SUBSTITUTED PYRIDINE N-OXIDE HERBICIDES” (E. I. DU PONT DE NEMOURS AND COMPANY, priority 2007, published 2010).

Key:
Italian ryegrass = test: Test C pre-/postemergence test; format: in vivo, Lolium multiflorum
Procedure, shortened: (§1)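 Compounds in a non-phytotoxic solvent with surfactant applied preemergence to seeded pots and, at the same time, postemergence to plants 2–18 cm tall (1- to 4-leaf stage). Paddy tests: pots flooded to 3 cm, compound applied into the water, depth held throughout.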

crabgrass [1] = test: Test C pre-/postemergence test; format: in vivo, Digitaria sanguinalis
Procedure, shortened: as §1

soybean = test: Test C pre-/postemergence test; format: in vivo, Glycine max
Procedure, shortened: as §1

corn [2] = test: Test A pre-/postemergence greenhouse test; format: in vivo, Zea mays; conditions: for Plant response rating, Corn: 0 to 100 scale where 0 is no effect and 100 is complete control; for Corn plant response rating: 0 to 100 scale
Procedure, shortened: (§2)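 Greenhouse herbicide screen, pre- and postemergence in parallel. Soil: loam plus sand. Formulation: non-phytotoxic solvent mix with surfactant. Postemergence stage: one to two leaves, 2–10 cm height. Evaluation: visual injury, compared with untreated controls, about 10 days after treatment.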

barnyardgrass [3] = test: Test C flooded paddy test; format: in vivo, Echinochloa crus-galli; conditions: Flood
Procedure, shortened: (§3)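 Pots were flooded to 3 cm above the soil surface at treatment, compound applied directly to the paddy water, and that depth held throughout. Plants were kept in a greenhouse for 13 to 15 days, then visually rated against untreated controls.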

green foxtail = test: Test C pre-/postemergence test; format: in vivo, Setaria viridis
Procedure, shortened: as §1

yellow nutsedge = test: Test C pre-/postemergence test; format: in vivo, Cyperus esculentus
Procedure, shortened: as §1

barnyardgrass [4] = test: Test A pre-/postemergence greenhouse test; format: in vivo, Echinochloa crus-galli; conditions: for Plant response rating, Barnyardgrass: 0 to 100 scale where 0 is no effect and 100 is complete control; for Barnyardgrass plant response rating: 0 to 100 scale
Procedure, shortened: as §2

crabgrass [5] = test: Test A pre-/postemergence greenhouse test; format: in vivo, Digitaria sanguinalis; conditions: for Plant response rating, Crabgrass, Large: 0 to 100 scale where 0 is no effect and 100 is complete control; for Crabgrass, Large plant response rating: 0 to 100 scale
Procedure, shortened: as §2

johnsongrass = test: Test C pre-/postemergence test; format: in vivo, Sorghum halepense
Procedure, shortened: as §1

velvetleaf = test: Test A pre-/postemergence greenhouse test; format: in vivo, Abutilon theophrasti; conditions: for Velvetleaf plant response rating: 0 to 100 scale
Procedure, shortened: as §2

duck salad = test: Test C flooded paddy test; format: in vivo, Heteranthera limosa; conditions: Flood
Procedure, shortened: as §3

pigweed = test: Test C pre-/postemergence test; format: in vivo, Amaranthus retroflexus
Procedure, shortened: as §1

Goosegrass = test: Test C pre-/postemergence test; format: in vivo, Eleusin indica
Procedure, shortened: as §1

bermudagrass = test: Test C pre-/postemergence test; format: in vivo, Cynodon dactylon
Procedure, shortened: as §1

umbrella sedge = test: Test C flooded paddy test; format: in vivo, Cyperus difformis; conditions: Flood
Procedure, shortened: as §3

corn [6] = test: Test C pre-/postemergence test; format: in vivo, Zea mays
Procedure, shortened: as §1

[7] = 62 g ai/ha, Preemergence, scale 0 to 100
[8] = 125 g ai/ha, preemergence, scale 0 (no effect) to 100 (complete control)
[9] = Preemergence, 31 g ai/ha, scale 0 to 100 (0 no effect, 100 complete control)
[10] = preemergence, 250 g ai/ha, scale 0 (no effect) to 100 (complete control)
[11] = Postemergence, 500 g ai/ha, 0 is no effect, 100 is complete control
[12] = Preemergence, 125 g ai/ha, 0 no effect, 100 complete control
[13] = 62 g ai/ha, scale 0 to 100 (0 no effect, 100 complete control)
[14] = 250 g ai/ha, scale 0 to 100, 0 no effect, 100 complete control, 13 to 15 days

Question: Cn1nc(C(F)(F)C(F)(F)F)c(C[S+]([O-])c2ccc(Cl)c[n+]2[O-])c1OCC(F)(F)F (stereo not drawn) [Compound 92] was tested. Which “Ryegrass, Italian plant response rating” value (Italian ryegrass; [7]) did it give?
Answer: 80

Question: What about the “Ryegrass, Italian plant response rating” value (Italian ryegrass; [8]) of the same compound?
Answer: 100

Question: What about the “Plant response rating, Ryegrass, Italian” value (Italian ryegrass; [9]) of the same compound?
Answer: 60

Question: And the “Ryegrass, Italian plant response rating” value (Italian ryegrass; [10])?
Answer: 100

Question: What about the “Crabgrass, Large plant response rating” value (crabgrass [1]; [7]) of the same compound?
Answer: 98

Question: What about the “Crabgrass, Large plant response rating” value (crabgrass [1]; [8]) of the same compound?
Answer: 100

Question: And the “Plant response rating, Crabgrass, Large” value (crabgrass [1]; [9])?
Answer: 95

Question: What about the “Crabgrass, Large plant response rating” value (crabgrass [1]; [10]) of the same compound?
Answer: 100

Question: What about the “Plant response rating, Soybean” value (soybean; [9]) of the same compound?
Answer: 0

Question: And the “Soybean plant response rating” value (soybean; [10])?
Answer: 80

Question: What about the “Plant response rating, Corn” value (corn [2]; Postemergence, 125 g ai/ha) of the same compound?
Answer: 70

Question: What about the “Corn plant response rating” value (corn [2]; [11]) of the same compound?
Answer: 80

Question: And the “Corn plant response rating” value (corn [2]; [12])?
Answer: 60

Question: What about the “Plant response rating, Corn” value (corn [2]; Preemergence, 500 g ai/ha) of the same compound?
Answer: 90

Question: And the “Plant response rating, Barnyardgrass” value (barnyardgrass [3]; [13])?
Answer: 0

Question: And the “Plant response rating, Barnyardgrass” value (barnyardgrass [3]; [14])?
Answer: 75

Question: What about the “Foxtail, Green plant response rating” value (green foxtail; [7]) of the same compound?
Answer: 95

Question: What about the “Foxtail, Green plant response rating” value (green foxtail; [8]) of the same compound?
Answer: 98

Question: What about the “Plant response rating, Foxtail, Green” value (green foxtail; [9]) of the same compound?
Answer: 90

Question: What about the “Foxtail, Green plant response rating” value (green foxtail; [10]) of the same compound?
Answer: 100

Question: What about the “Nutsedge, Yellow plant response rating” value (yellow nutsedge; [7]) of the same compound?
Answer: 90

Question: And the “Nutsedge, Yellow plant response rating” value (yellow nutsedge; [8])?
Answer: 90

Question: What about the “Plant response rating, Nutsedge, Yellow” value (yellow nutsedge; [9]) of the same compound?
Answer: 90

Question: What about the “Nutsedge, Yellow plant response rating” value (yellow nutsedge; [10]) of the same compound?
Answer: 100

Question: And the “Plant response rating, Barnyardgrass” value (barnyardgrass [4]; Postemergence, 125 g ai/ha)?
Answer: 70

Question: What about the “Barnyardgrass plant response rating” value (barnyardgrass [4]; [11]) of the same compound?
Answer: 90

Question: What about the “Barnyardgrass plant response rating” value (barnyardgrass [4]; [12]) of the same compound?
Answer: 60

Question: And the “Plant response rating, Barnyardgrass” value (barnyardgrass [4]; Preemergence, 500 g ai/ha)?
Answer: 90

Question: What about the “Plant response rating, Crabgrass, Large” value (crabgrass [5]; Postemergence, 125 g ai/ha) of the same compound?
Answer: 70

Question: And the “Crabgrass, Large plant response rating” value (crabgrass [5]; [11])?
Answer: 90

Question: And the “Crabgrass, Large plant response rating” value (crabgrass [5]; [12])?
Answer: 80

Question: What about the “Plant response rating, Crabgrass, Large” value (crabgrass [5]; Preemergence, 500 g ai/ha) of the same compound?
Answer: 90

Question: What about the “Johnsongrass plant response rating” value (johnsongrass; [7]) of the same compound?
Answer: 98

Question: What about the “Johnsongrass plant response rating” value (johnsongrass; [8]) of the same compound?
Answer: 100

Question: And the “Plant response rating, Johnsongrass” value (johnsongrass; [9])?
Answer: 80

Question: What about the “Johnsongrass plant response rating” value (johnsongrass; [10]) of the same compound?
Answer: 100

Question: And the “Plant response rating, Velvetleaf” value (velvetleaf; Postemergence, 125 g ai/ha, 0 to 100 scale where 0 is no effect and 100 is complete control)?
Answer: 50

Question: What about the “Velvetleaf plant response rating” value (velvetleaf; [11]) of the same compound?
Answer: 90

Question: And the “Velvetleaf plant response rating” value (velvetleaf; [12])?
Answer: 30

Question: And the “Velvetleaf plant response rating” value (velvetleaf; Preemergence, 500 g ai/ha, 0 no effect, 100 complete control)?
Answer: 100

Question: And the “Plant response rating, Ducksalad” value (duck salad; [13])?
Answer: 55

Question: What about the “Plant response rating, Ducksalad” value (duck salad; [14]) of the same compound?
Answer: 100

Question: What about the “Pigweed plant response rating” value (pigweed; [7]) of the same compound?
Answer: 100

Question: And the “Pigweed plant response rating” value (pigweed; [8])?
Answer: 100

Question: And the “Plant response rating, Pigweed” value (pigweed; [9])?
Answer: 80

Question: And the “Pigweed plant response rating” value (pigweed; [10])?
Answer: 100

Question: What about the “Goosegrass plant response rating” value (Goosegrass; [7]) of the same compound?
Answer: 90

Question: What about the “Goosegrass plant response rating” value (Goosegrass; [8]) of the same compound?
Answer: 90

Question: What about the “Plant response rating, Goosegrass” value (Goosegrass; [9]) of the same compound?
Answer: 90

Question: And the “Goosegrass plant response rating” value (Goosegrass; [10])?
Answer: 100

Question: And the “Bermudagrass plant response rating” value (bermudagrass; 62 g ai/ha, Preemergence, scale 0 to 100 (0 no effect, 100 complete control))?
Answer: 100

Question: What about the “Bermudagrass plant response rating” value (bermudagrass; [8]) of the same compound?
Answer: 100

Question: What about the “Plant response rating, Bermudagrass” value (bermudagrass; [9]) of the same compound?
Answer: 100

Question: And the “Bermudagrass plant response rating” value (bermudagrass; [10])?
Answer: 100

Question: And the “Plant response rating, Sedge, Umbrella” value (umbrella sedge; [13])?
Answer: 20

Question: What about the “Plant response rating, Sedge, Umbrella” value (umbrella sedge; [14]) of the same compound?
Answer: 100

Question: And the “Corn plant response rating” value (corn [6]; [7])?
Answer: 95

Question: What about the “Corn plant response rating” value (corn [6]; [8]) of the same compound?
Answer: 98

Question: What about the “Plant response rating, Corn” value (corn [6]; [9]) of the same compound?
Answer: 75

Question: What about the “Corn plant response rating” value (corn [6]; [10]) of the same compound?
Answer: 98
